Data from PMC4729491, “The Cellular Thioredoxin-1/Thioredoxin Reductase-1 Driven Oxidoreduction Represents a Chemotherapeutic Target for HIV-1 Entry Inhibition” (PLoS ONE, 2016).

Legend:
[1] = system: HIV; parameters: method as in PMID 8895167; conditions: cited from earlier work
[2] = system: HuT-78/HIV-1 and Sup-T1 cells; assay: cells; format: cell-based
Method: Persistently infected HuT-78/HIV-1 cells were thoroughly washed to eliminate free virions. Next, 1 x 10^5 HuT-78/HIV-1 cells were co-cultivated with 1 x 10^5 Sup-T1 cells in 96-well plates (200 μl/well) during 20 h at 37°C, in the presence or absence of a serial dilution of compound. Afterwards, the formation of syncytia was evaluated microscopically. The EC50 was defined as the compound concentration required to suppress syncytia formation by 50%.

[3] = biological target: T1, TrxR1 (Homo sapiens, UniProt Q16881); assay: Inhibition of TrxR1-dependent reduction of HIV-1 gp120 (ELISA); format: biochemical; conditions: 100 μM compound; 1 μM Trx1 + 100 nM TrxR1 + 240 μM NADPH; control without compound 38–54%
T1 construct: purchased IMCO Corporation (Stockholm, Sweden) or Sino Biological Inc (Zoersel, Belgium)
T1 sequence (Q16881 1-499 isoform Q16881-5): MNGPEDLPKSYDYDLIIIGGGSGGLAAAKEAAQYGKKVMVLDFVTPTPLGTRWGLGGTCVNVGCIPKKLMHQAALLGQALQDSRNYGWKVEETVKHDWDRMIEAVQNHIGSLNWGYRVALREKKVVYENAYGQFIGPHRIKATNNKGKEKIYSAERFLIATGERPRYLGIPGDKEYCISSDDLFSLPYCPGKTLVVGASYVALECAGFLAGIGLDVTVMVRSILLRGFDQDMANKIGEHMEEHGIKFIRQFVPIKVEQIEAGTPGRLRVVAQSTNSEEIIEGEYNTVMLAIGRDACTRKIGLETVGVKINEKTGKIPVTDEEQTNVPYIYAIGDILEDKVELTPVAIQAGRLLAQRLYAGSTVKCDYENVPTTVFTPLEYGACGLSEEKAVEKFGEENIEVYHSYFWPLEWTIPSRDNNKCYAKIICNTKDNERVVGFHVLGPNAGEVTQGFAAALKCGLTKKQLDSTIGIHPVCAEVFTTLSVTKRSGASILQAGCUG
Method: After coating 96-well Maxi-Sorp ELISA plates (Nunc Inc, Roskilde, Denmark) with 100 μl gp120 in PBS (2 μg/ml), these were blocked with PBST (phosphate buffered saline, pH 7.4 with 0.05% Tween 20) as described before). The experiment was performed with two different set-ups for each compound, but each reaction mixture contained 1 μM Trx1 + 100 nM TrxR1 + 240 μM NADPH + 100 μM of the compounds, with auranofin as an inhibition control. In the first set-up (TrxR1 + Trx1), the reaction mixtures were pre-incubated for 15 min at 37°C in the absence of the compounds, which were added after the preincubation period. In the second set-up (TrxR1 + compounds), the reaction mixtures were exposed to the different compounds, but in the absence of Trx1, which was added after the 15 min pre-incubation period. The reaction mixtures were then added to the gp120-coated wells to allow the reduction of gp120, incubated for 15 min at 37°C and then washed four times with PBST to remove any unbound material. Subsequently, the wells were incubated with 2 μM biotin-maleimide for 30 min at room temperature, then washed and incubated with steptavidine-ALP (diluted 1:1000) at room temperature. […] The absorbance at 405 nm was measured using a microplate reader (Wallac Perkin-Elmer).

[4] = system: CEM cells; assay: Cytostatic activity assay, CEM cells; format: cell-based; conditions: Homo sapiens, CCRF-CEM, 72 h; inhibition of cell proliferation by 50%, three-day drug-exposed; mean ± SD
Method: (§1) The cytostatic activity assay using transformed cell lines was also performed in 96-well microtiter plates. 5–7.5 x 10^4 human CD4^+ T-lymphocyte CEM or human cervix carcinoma HeLa cells and a given amount of the test compounds were added to each well. The cells were allowed to proliferate for 72 h (96 h for HeLa) at 37°C in a humidified CO2-controlled atmosphere. At the end of the incubation period, the cells were counted in a Coulter counter (type ZM, Coulter Electronics, Analis, Ghent, Belgium).

[5] = system: HIV-1(HE); assay: Antiviral activity in PHA-stimulated PBMCs (p24 ELISA), HIV-1(HE); format: cell-based; conditions: Human immunodeficiency virus 1, PBMC, read-out: EC50 HIV-1 (HE)
Method: (§2) To test the antiviral activity in fresh, PHA-stimulated PBMCs, an experiment was performed as previously described. Briefly, the cells were preincubated with HIV-1(IIIB), HIV-1(BaL) or HIV-1(HE) for 1 h at 37°C, using a viral load of 1000 x CCID50 per ml. Then, cell suspensions containing virus and 2 x 10^5 PBMCs were seeded in a 96-well microtiter plate and a serial dilution of compound was added, in a total volume of 200 μl. After 4 days, the cells were passaged and fresh culture medium, containing IL-2 and compound, was added. Three days later, cellular supernatants were harvested and viral replication in the presence of the compounds was quantified using a p24 enzyme-linked immunosorbent assay (ELISA) (Perkin Elmer, Brussels, Belgium). The half maximal effective concentration (EC50) was defined as the compound concentration that is required to block viral replication by 50%.

[6] = system: HIV-1(BaL); assay: Antiviral activity in PHA-stimulated PBMCs (p24 ELISA), HIV-1(BaL); format: cell-based; conditions: Human immunodeficiency virus 1, BAL, PBMC, read-out: EC50 HIV-1 (BAL)
Method: as §2

[7] = system: HIV-1(IIIB); assay: Antiviral activity in PHA-stimulated PBMCs (p24 ELISA), HIV-1(IIIB); format: cell-based; conditions: Human immunodeficiency virus 1, IIIB, PBMC, read-out: EC50 HIV-1 (IIIB)
Method: as §2

[8] = previously known structural properties ref 20-22; cited from earlier work
[9] = biological target: T2, HIV-1 protease (Human immunodeficiency virus type 1 group M subtype B, UniProt P04585); assay: HIV-1 protease inhibition (SensoLyte 520 kit); format: biochemical; conditions: 25 μM
T2 construct: the virus-encoded protease; endogenous in cells; host or cells: persistently infected HuT-78/HIV-1(IIIB) cells and released virus particles
Method: The ability of the compounds to inhibit the activity of recombinant HIV-1 protease was determined by a SensoLyte 520 HIV-1 protease assay kit (AnaSpec Inc., Fremont, CA) according to the manufacturer’s instructions. Compounds (10 μl of a 250 μM, solution, giving a final concentration of 25 μM in the reaction mixture) and 40 μl HIV-1 protease (100 ng/well; AnaSpec Inc.) were added to a dark-bottom 96-well plate. Pepstatin A was included as an inhibitor control. The plate as well as the HIV-1 protease substrate solution (provided) were incubated for 15 minutes at 37°C and 50 μl protease substrate was added to all wells. The fluorescence was measured at Ex/Em = 490 nm/520 nm with a Varioskan Flash (Thermo Electron Corporation, Schwerte, Germany).

[10] = system: HIV-1(IIIB); assay: microbe, parasite or virus in culture; format: cell-based; conditions: for EC50: Human immunodeficiency virus 1, IIIB, CCRF-CEM
Method: (§3) To study the antiviral activity in transformed cells, CEM cells were suspended in fresh culture medium and infected with HIV-1(IIIB) or HIV-2(ROD) at 100 x CCID50 (cell culture infective dose 50%) per ml of cell suspension. Infected cell suspension (100 μl; 3 x 10^5 cells/ml) was transferred to a 96-well microplate, mixed with 100 μl of the appropriate dilutions of compounds, and further incubated at 37°C. After 4 days, giant cell formation was recorded microscopically and the number of giant cells was estimated microscopically as percentage of the number of giant cells present in the non-treated virus-infected cell cultures.

[11] = system: PHA-stimulated PBMCs; assay: Toxicity in PHA-stimulated PBMCs (trypan blue cell counting); format: cell-based, human; conditions: Homo sapiens, PBMC, 168 h, read-out: IC50 PBMC
Method: A similar experiment was performed to study the toxicity of the compounds in fresh, PHA-stimulated, PBMCs. Mock-infected PBMCs (2 x 10^5 cells) were exposed to a serial dilution of compound, in a total volume of 200 μl. Cells were passaged after 4 days. Cell survival and proliferation was assessed at day 7 using trypan blue-based cell counting with the Countess Automated Cell Counter (Invitrogen, Ghent, Belgium). The IC50 was defined as the concentration of the compound that inhibited cell proliferation by 50%.

[12] = system: HeLa cells; assay: Cytostatic activity assay, HeLa cells; format: cell-based; conditions: Homo sapiens, 72 h, read-out: IC50 HeLa
Method: as §1

[13] = biological target: T2, HIV-1 protease; assay: p55 cleavage in virus particles from HuT-78/HIV-1 cells (Western blot); format: cell-based; conditions: 43 h, AZT 3.7 μM, ritonavir 2.8 μM, TE-10 1 and 20 μM
Method: In order to confirm the inhibitory effect of TE-10, an additional assay was performed to study the inhibition of the HIV-1 protease by TE-10. Therefore, 2 x 10^5 persistently infected HuT-78/HIV-1 cells were washed thoroughly and seeded in 48-well plates, in the presence or absence of compound. As reference compounds, the RT inhibitor AZT (3.7 μM) and the protease inhibitor ritonavir (2.8 μM) were used, as negative and positive controls, respectively. TE-10 was used at 1 μM and 20 μM. After 43 h of incubation at 37°C, virus-containing cell culture supernatants were harvested and the cells were removed by centrifugation (10 min at ± 900 x g). Then, virus was precipitated from the cell supernatant by centrifugation at ± 3.5 x 10^4 x g for at least 2 h. The viruses were resuspended in PBS and lysed with Triton-X100 (Sigma-Aldrich, Diegem, Belgium). These viral lysates were then subjected to SDS-PAGE and subsequent Western blotting to detect the presence of p24 and its precursor p55, using an anti-p24 antibody (AB9044; final concentration 2.4 μg/ml).

[14] = system: HIV-1; assay: Infectivity assay in TZM-bl cells (luciferase); conditions: 40 h
Method: TZM-bl cells (1 x 10^5) were infected with diluted virus suspension (see virus expression) in a total volume of 0.2 ml DMEM medium in the presence of the compounds or an inhibitor control (nevirapine). After 40 h at 37°C, the luminescence was assayed and quantified in a Luminoskan Ascent (Thermo Labsystems, Schwerte, Germany) for luciferase activity using the OneGlo luciferase assay system (Promega, Nacka, Sweden).

[15] = system: HIV-1; assay: Infectivity (TZM-bl) of virus particles produced by ACH-2 cells in presence of compound; format: cell-based; conditions: compound added at 1/100 of concentration in viral growth culture
Method: To measure the infectivity of particles produced in the presence of the compounds, washed persistently HIV-1-infected ACH-2 cells (1 x 10^6 cells/ml) were cultured with 100 nM PMA in the presence of the indicated concentration of compounds. After 3 days, the p24 content of the clarified supernatant (see virus expression) was measured. The cell supernatant was then used for an infectivity test (see infectivity assay) without the further addition of any compound to the cultures. The final dilution of the ACH-2 supernatant in the infectivity test was 1:100. A control experiment was performed, in which virus particles produced without the addition of compound, were used for the infectivity test. Additionally, the same amount of compound that could have been carried over with the virus containing supernatant in the original experiment was added to the infectivity test (final concentration: 1/100 of the indicated amount in the viral growth culture).

[16] = system: HIV-2(ROD); assay: Inhibition of HIV-2(ROD)-induced giant cell formation in CEM cell cultures; format: cell-based
Method: as §3

[17] = biological target: T3, HIV-1 reverse transcriptase (Human immunodeficiency virus type 1 group M subtype B, UniProt P04585); assay: Reverse transcriptase inhibition (Lenti RT Activity kit); format: biochemical; conditions: 25 μM; poly-A template, overnight
Method: The ability of the compounds to inhibit the activity of viral RT was determined by a Lenti RT Activity kit (Cavidi, Uppsala, Sweden) according to the manufacturer’s instructions. A poly-A-coated plate was incubated with the reaction bufferfor up to 1 h at 33°C. Then, a mixture of the virus preparation (see virus expression) and 25 μM of the test compounds or an inhibitor control (nevirapin) were added to the RT assay mixture and incubated overnight at 33°C. The plate was washed, exposed to the provided tracer for 90 min at 33°C and washed again, before the provided substrate was added to quantify the RT reaction that took place. The plate was incubated in the dark for 30 min and subsequently read at 405 nm in a Labsystem Multiskan RC (Artisan Technology Group, Champaign, IL, USA).

[18] = biological target: T3, HIV-1 reverse transcriptase; parameters: method as in PMID 1376314; conditions: template poly rC.dG versus other templates ref 38; cited from earlier work

Structure (SMILES): CC(=O)OC[C@H]1O[C@@H]([S-])[C@H](OC(C)=O)[C@@H](OC(C)=O)[C@@H]1OC(C)=O.CCP(CC)CC.[Au+] [auranofin]
- CD4 counts ([1]; HIV-infected patients ref 9): increased the CD4 counts
- plasma HIV-RNA counts ([1]; HIV-infected patients treated for rheumatoid arthritis ref 9): lowered
- inhibition of syncytium formation ([2]; cocultures of HuT-78/HIV-1(IIIB) and Sup-T1 cells, data not shown): failed to inhibit syncytium formation
- reduction of gp120 disulfide bonds, % of DTT (set at 100%) [3]: 6–10%

Structure (SMILES): COC(=O)CCN(CCC(=O)OC)c1ccc([Te]c2ccc(N(CCC(=O)OC)CCC(=O)OC)cc2)cc1 [TE-10, bis[4-(N,N-di(2-carbomethoxyethyl)amino)phenyl]telluride]
- IC50 [4]: ≥ 250 µM
- EC50 [5]: 6.6 ± 2.1 µM
- EC50 [6]: 12 ± 10 µM
- EC50 [7]: 12 ± 4 µM
- Hydrophobicity [8]: Hydrophobic
- decrease of protease activity [9]: 50%
- Ratio IC50/EC50 HIV-1 (CEM) ([10]; CEM cells): 16
- EC50 ([10]; read-out: EC50 (range given)): 15 to 16 µM
- EC50 ([10]; read-out: EC50 HIV-1 (IIIB)): 16 ± 7.9 µM
- IC50 [11]: 19 ± 2 µM
- IC50 [12]: 128 ± 29 µM
- p55 cleavage in viral particles (Western blot) [13]: allow efficient p55 cleavage
- IC50 ([2]; Human immunodeficiency virus 1, SUP-T1, 24 h, read-out: IC50 inhibition of syncytia formation): > 250 µM
- fold higher concentration for similar inhibition of luminescence signal than the other organotellurium compounds ([14]; TZM-bl): approximately 10 fold
- carry-over control: residual compound as cause of decreased infectivity [15]: could not be explained by the presence of residual compound
- Ratio IC50/EC50 HIV-2 (CEM) ([16]; CEM cells): 17
- EC50 ([16]; Human immunodeficiency virus 2, CCRF-CEM, read-out: EC50 HIV-2 (ROD)): 15 ± 2.6 µM

Structure (SMILES): Cc1ccnc2c1NC(=O)c1cccnc1N2C1CC1 [nevirapine]
- inhibition of RT polymerase activity [17]: pronounced, however not complete inhibitory activity
- inhibition of luminescence signal (HIV infection of TZM-bl) ([14]; 10 μM): full inhibition
- better inhibition efficacy with poly rC.dG than other templates [18]: ~ 10 fold
